# Source: ChEMBL document CHEMBL5385944, “Hydrazyl hydroxycoumarins as new potential conquerors towards Pseudomonas aeruginosa” (Bioorg Med Chem Lett, 2024)
# Legend:
# Format in all cases: functional
# Staphylococcus aureus [1] = experiment: Antibacterial activity against Staphylococcus aureus ATCC 25923 assessed as reduction in bacterial growth by CLSI protocol based method
# Escherichia coli = experiment: Antibacterial activity against Escherichia coli ATCC 25922 assessed as reduction in bacterial growth by CLSI protocol based method
# Staphylococcus aureus [2] = experiment: Antibacterial activity against Staphylococcus aureus ATCC 29213 assessed as reduction in bacterial growth by CLSI protocol based method
# Staphylococcus aureus [3] = experiment: Antibacterial activity against methicillin resistant Staphylococcus aureus assessed as reduction in bacterial growth by CLSI protocol based method
# Pseudomonas aeruginosa [4] = experiment: Antibacterial activity against Pseudomonas aeruginosa ATCC 27853 assessed as reduction in bacterial growth by CLSI protocol based method
# Staphylococcus aureus [5] = experiment: Antibacterial activity against methicillin resistant Staphylococcus aureus 43300 assessed as reduction in bacterial growth by CLSI protocol based method
# Acinetobacter baumannii = experiment: Antibacterial activity against Acinetobacter baumannii assessed as reduction in bacterial growth by CLSI protocol based method
# Pseudomonas aeruginosa [6] = experiment: Antibacterial activity against Pseudomonas aeruginosa ATCC 90027 assessed as reduction in bacterial growth by CLSI protocol based method
# Pseudomonas aeruginosa [7] = experiment: Antibacterial activity against Pseudomonas aeruginosa ATCC 10104 assessed as reduction in bacterial growth by CLSI protocol based method
# Pseudomonas aeruginosa [8] = experiment: Antibacterial activity against Pseudomonas aeruginosa assessed as reduction in bacterial growth by CLSI protocol based method
# Enterococcus faecalis = experiment: Antibacterial activity against Enterococcus faecalis assessed as reduction in bacterial growth by CLSI protocol based method
# Klebsiella pneumoniae = experiment: Antibacterial activity against Klebsiella pneumoniae assessed as reduction in bacterial growth by CLSI protocol based method
SMILES,MIC (Staphylococcus aureus [1]) [µg/mL],MIC (Escherichia coli) [µg/mL],MIC (Staphylococcus aureus [2]) [µg/mL],MIC (Staphylococcus aureus [3]) [µg/mL],MIC (Pseudomonas aeruginosa [4]) [µg/mL],MIC (Staphylococcus aureus [5]) [µg/mL],MIC (Acinetobacter baumannii) [µg/mL],MIC (Pseudomonas aeruginosa [6]) [µg/mL],MIC (Pseudomonas aeruginosa [7]) [µg/mL],MIC (Pseudomonas aeruginosa [8]) [µg/mL],MIC (Enterococcus faecalis) [µg/mL],MIC (Klebsiella pneumoniae) [µg/mL]
N=C(N)N/N=C/c1c(O)ccc2ccc(=O)oc12,512,256,64,512,256,256,256,4,512,4,32,512
O=c1ccc2ccc(O)c(/C=N/Nc3ccc(S(=O)(=O)Nc4nccs4)cc3)c2o1,256,512,256,512,256,512,256,256,512,256,512,512
Nc1ccc(C(=O)N/N=C/c2c(O)ccc3ccc(=O)oc23)cc1,512,512,512,512,512,512,256,–,512,512,32,256
O=c1ccc2ccc(O)c(/C=N/NS(=O)(=O)c3cccc4ccccc34)c2o1,512,256,512,256,256,16,256,256,128,64,512,512
O=C(N/N=C/c1c(O)ccc2ccc(=O)oc12)c1ccc([N+](=O)[O-])cc1,512,4,512,512,512,512,512,512,512,512,512,512
